In US6984633B2, “Method to treat cardiofibrosis with a combination therapy of an angiotensin II antagonist and epoxymexrenone” (G.D Searle & Co., priority 1995, dated 2006):
pIC50: −log10 of the molar value. Where two headings read alike, the source gives them in different places.

How the values were obtained:
pressor response to AII [1] = assay: Assay C: In vivo intragastric pressor assay response for AII antagonists; set-up: species or system rat; conditions: dose not given, intragastrically
Procedure: Assay C: In Vivo Intragastric Pressor Assay Response for All Antagonists
Male Sprague-Dawley rats weighing 225-300 grams were anesthetized with methohexital (30 mg/kg, i.p.) and catheters were implanted into the femoral artery and vein. The catheters were tunneled subcutaneously to exit dorsally, posterior to the head and between the scapulae. The catheters were filled with heparin (1000 units/ml of saline). The rats were returned to their cage and allowed regular rate chow and water ad libitum. After full recovery from surgery (3-4 days), rats were placed in Lucite holders and the arterial line was connected to a pressure transducer. Arterial pressure was recorded on a Gould polygraph (mmHg). Angiotensin II was administered as a 30 ng/kg bolus via the venous catheter delivered in a 50 μl volume with a 0.1 ml saline flush. The pressor response in mm Hg was measured by the difference from pre-injection arterial pressure to the maximum pressure achieved. The AII injection was repeated every 10 minutes until three consecutive injections yielded responses within 4 mmHg of each other. These three responses were then averaged and represented the control response to AII. The test compound was suspended in 0.5% methylcellulose in water and was administered by gavage. The volume administered was 2 ml/kg body weight. The standard dose was 3 mg/kg. Angiotensin II bolus injections were given at 30, 45, 60, 75, 120, 150, and 180 minutes after gavage. The pressor response to AII was measured at each time point. The rats were then returned to their cage for future testing. A minimum of 3 days was allowed between tests. Percent inhibition was calculated for each time point following gavage by the following formula: [(Control Response—Response at time point)/Control Response]×100.

myocardial fibrosis = conditions: animal models, cited from earlier work
pressor response to AII [2] = assay: Assay C: In vivo intragastric pressor assay response for AII antagonists; set-up: species or system rat; conditions: dose not given, intraduodenally
[3] = target: angiotensin II AT1 receptor; assay: Assay A: Angiotensin II binding activity, 125I-AII displacement in rat uterine membrane preparation
Procedure: Assay A: Antiotensin II Binding Activity
Compounds of the invention were tested for ability to bind to the smooth muscle angiotensin II receptor using a rat uterine membrane preparation. […] The reaction was initiated by the addition of membrane protein and the mixture was incubated at 25° C. for 60 min. The incubation was terminated with ice-cold 50 mM Tris-HCl (pH 7.5) and the mixture was filtered to separate membrane-bound labelled peptide from the free ligand. The incubation tube and filter were washed with ice-cold buffer. Filters were assayed for radioactivity in a Micromedic gamma counter. Nonspecific binding was defined as binding in the presence of 10 μM of unlabelled AII. Specific binding was calculated as total binding minus nonspecific binding. […] Binding data were analyzed by a nonlinear least-squares curve fitting program.

rabbit aortic rings = assay: Assay B: In vitro vascular smooth muscle response for AII, antagonist activity in aortic rings; type: cell-based; conditions: two determinations separated by /
Procedure: Assay B: In Vitro Vascular Smooth Muscle-Response for AII
The compounds of the invention were tested for antagonist activity in rabbit aortic rings. Male New Zealand white rabbits (2-2.5 kg) were sacrificed using an overdose of pentobarbital and exsanguinated via the carotid arteries. The thoracic aorta was removed, cleaned of adherent fat and connective tissue and then cut into 3-mm ring segments. The endothelium was removed from the rings by gently sliding a rolled-up piece of filter paper into the vessel lumen. The rings were then mounted in a water-jacketed tissue bath, maintained at 37° C., between moveable and fixed ends of a stainless steel wire with the moveable end attached to an FT03 Grass transducer coupled to a Model 7D Grass Polygraph for recording isometric force responses. The bath was filled with 20 ml of oxygenated (95% oxygen/5% carbon dioxide) Krebs solution of the following composition (mM); 130 NaCl, 15 NaHCO3, […], 1.2 NaH2PO4, 1.2 MgSO4, 2.5 CaCl2, and 11.4 glucose. The preparations were equilibrated for one hour before approximately one gram of passive tension was placed on the rings. Angiotensin II concentration-response curves were then recorded (3×10^−10 to 1×10^−5 M). Each concentration of AII was allowed to elicit its maximal contraction, and then AII was washed out repeatedly for 30 minutes before rechallenging with a higher concentration of AII. Aorta rings were exposed to the test antagonist at 10^−5 M for 5 minutes before challenging with AII. Adjacent segments of the same aorta ring were used for all concentration-response curves in the presence of absence of the test antagonist. The effectiveness of the test compound was expressed in terms of pA2 values and were calculated according to H. O. Schild [Br. J. Pharmacol. Chemother., 2, 189-206 (1947)]. The pA2 value is the concentration of the antagonist which increases the EC50 value for AII by a factor of two. Each test antagonist was evaluated in aorta rings from two rabbits.

Row | SMILES | Assay B pA2 (rabbit aortic rings) | also measured
1 | CCCCc1nn(CCCc2ccccc2)c(=O)n1Cc1ccc(-c2ccccc2-c2nn[nH]n2)cc1 [Compound 81] | – | Assay C Duration (pressor response to AII [1]): 180 min
2 | CC(=O)S[C@@H]1CC2=CC(=O)CC[C@]2(C)[C@H]2CC[C@@]3(C)[C@@H](CC[C@@]34CCC(=O)O4)[C@H]12 [spironolactone] | – | prevention of myocardial fibrosis (myocardial fibrosis): prevents myocardial fibrosis in animal models; prevention of myocardial fibrosis (myocardial fibrosis; listed as Spironolactone): prevent fibrosis in animal models irrespective of the development of left ventricular hypertrophy and the presence of hypertension
3 | CCCCc1nc(CCCC)n(Cc2ccc(-n3c(Cl)cc(Cl)c3-c3nnn[nH]3)cc2)n1 [Compound 143] | – | Assay C Duration (pressor response to AII [2]): 75 min
4 | CCCn1nc(C(F)F)nc1Cc1ccc(-c2ccccc2-c2nnn[nH]2)nc1 [Compound 162] | – | pIC50 [3]: 6.42
5 | CCCCc1nc2c(OC(C)=O)nnc(OC(C)=O)c2n1Cc1ccc(-c2ccccc2-c2nnn[nH]2)cc1 [Compound 125] | – | pIC50 [3]: 7.40
6 | CCCCc1nn(CC(=O)c2ccccc2)c(=O)n1Cc1ccc(-c2ccccc2-c2nn[nH]n2)cc1 [Compound 82] | – | Assay C Duration (pressor response to AII [1]): 180 min
7 | CCCCn1nc(C(F)F)nc1Cc1ccc(-c2ccccc2-c2nnn[nH]2)nc1 [Compound 163] | – | pIC50 [3]: 6.38
8 | CCCCc1nn(CC(OCC(=O)O)c2ccccc2)c(=O)n1Cc1ccc(-c2ccccc2-c2nn[nH]n2)cc1 (stereo not drawn) [Compound 91] | – | Assay C Duration (pressor response to AII [1]): >180 min
9 | CCCCc1nn(CC(=O)OC(C)(C)C)c(=O)n1Cc1ccc(-c2ccccc2-c2nn[nH]n2)cc1 [Compound 84] | – | Assay C Duration (pressor response to AII [1]): 30 min
10 | CCCCc1cn(CCc2ccccc2)c(=O)n1Cc1ccc(-c2ccccc2-c2nnn[nH]2)cc1 [Compound 133] | – | Assay C Duration (pressor response to AII [1]): 90 to 120 min
11 | CCCCc1nn(CC(O)c2ccccc2)c(=O)n1Cc1ccc(-c2ccccc2-c2nn[nH]n2)cc1 (stereo not drawn) [Compound 83] | – | Assay C Duration (pressor response to AII [1]): >180 min
12 | CCCCc1nc(C(=O)Cc2ccccc2)nn1Cc1ccc(-c2ccccc2-c2nnn[nH]2)cc1 [Compound 50] | 7.89 | –
13 | CCCCc1nc(C(=O)N(C)C(C)(C)C)nn1Cc1ccc(-c2ccccc2-c2nnn[nH]2)nc1 [Compound 255] | 7.46 | –
14 | CCCCc1nn(CC(C)c2cc(OC)ccc2OC)c(=O)n1Cc1ccc(-c2ccccc2-c2nn[nH]n2)cc1 (stereo not drawn) [Compound 98] | – | Kb (rabbit aortic rings; Oryctolagus cuniculus, read-out: Assay B pA2 (converted)): 7.94 nM; pIC50 [3]: 7.66
15 | CCCCc1nc(CCCN)nn1Cc1ccc(-c2ccccc2-c2nnn[nH]2)cc1 [Compound 72] | 6.10 | –
16 | CCCCc1nc(C(F)(F)CCC)n(Cc2ccc(-c3ccccc3-c3nnn[nH]3)nc2)n1 [Compound 248] | 7.50 | –
17 | CCCCc1nc(CCCO)n(Cc2ccc(-c3ccccc3-c3nnn[nH]3)cc2)n1 [Compound 46] | 6.64 | –
18 | CCCCn1nc(C(OCC)OCC)nc1Cc1ccc(-c2ccccc2-c2nnn[nH]2)nc1 [Compound 176] | 7.55 | –
19 | CCCCc1nc2c(OC(=O)C(C)C)nnc(O)c2n1Cc1ccc(-c2ccccc2-c2nnn[nH]2)cc1 [Compound 119] | 9.00 | –
20 | CCCCn1nc(C(=O)CCC)nc1Cc1ccc(-c2ccccc2-c2nnn[nH]2)nc1 [Compound 160] | 7.71 | –
21 | CCCCc1nc(CCC(C)C)n(Cc2ccc(-c3ccccc3-c3nnn[nH]3)cc2)n1 [Compound 16] | 9.24 | –
22 | CCCCc1nc(C)nn1Cc1ccc(-c2ccccc2C(=O)O)cc1 [Compound 280] | 6.35 | –
23 | CCCCc1nc(CCC(C)C)nn1Cc1ccc(-c2ccccc2-c2nnn[nH]2)cc1 [Compound 17] | 8.40 | –
24 | CCCCc1nn(CCCC)c(=O)n1Cc1ccc(-c2ccccc2C(=O)O)cc1 [Compound 78] | – | Assay C Duration (pressor response to AII [2]): 60 to 100 min
25 | CCCc1nc(CCC)n(Cc2ccc(-c3ccccc3-c3nnn[nH]3)cc2)n1 [Compound 12] | 8.59 | –
26 | CCCCc1nc(Cc2ccc(-c3ccccc3-c3nnn[nH]3)cc2)n(CCCC)n1 [Compound 128] | 8.40 | –
27 | CCCCc1nc(CC2CCCCC2)n(Cc2ccc(-c3ccccc3-c3nnn[nH]3)cc2)n1 [Compound 73] | 7.46 | –
28 | CCCCc1nc(CCC)nn1Cc1ccc(-c2ccccc2-c2nnn[nH]2)cc1 [Compound 14] | 8.71 | –
